Reference: US20120208781A1, “AMINOGLYCOSIDE DOSING REGIMENS” (Achaogen, Inc., priority 2009, published 2012)
In brackets after ≈: the same amount, converted by molar mass. Several values for one entry are separate records, joined by “and”; a condition that tells them apart may be missing. Equal values may be shown once. Entries after “also recorded” stand apart in the source; their conditions may differ. Read-outs that look alike come from different tables or passages of the source.

Assays:
[1] = Phase 1 study 15 mg/kg/day once daily for five days: safety, BUN and Cr; assay type: in vivo, human; conditions: healthy subjects
Experimental: (§1) An additional randomized, double-blind, placebo-controlled study was performed to assess the safety and pharmacokinetics of Compound 1 following IV administration to healthy adult volunteers according to a high dose, short course regimen of 15 mg/kg/day of Compound 1 administered once daily for five days. Compound 1 was formulated as a sterile solution at a concentration of 50 mg/mL in 10 mL glass vials for intravenous (IV) administration (“Compound 1 Injection”). Eight healthy subjects were randomized to receive either Compound 1 Injection or placebo administered IV by 10 minute infusion daily for five days. Seven subjects received 5 doses and one received 3 doses (early withdrawal for personal reasons).
BUN and creatine (Cr) were assessed daily for each of the five days prior to dosing and at day 5 post-dosing to assess renal function following this high dose, short course regimen.

hearing function = experiment: 28-day guinea pig ototoxicity study of Compound 1: ABR and observations
Experimental: Additionally, four groups of four male and four female animals were utilized for toxicokinetic (TK) sampling and received the control or test article in the same manner as the main study groups at respective dose levels of 0 (Vehicle Control), 8, 30, or 80 mg/kg.
Physical examinations were conducted pretest on all animals and prior to study termination for main study animals. […] Blood samples for determination of the plasma concentrations of the test article were collected from TK animals at designated time points on Day 1 and Day 14. After blood collection, the TK animals were euthanized and the carcasses were discarded.

[2] = system: cochlear function, vestibular function; experiment: First-in-human phase 1 study: cochlear and vestibular function (ototoxicity); assay type: in vivo; conditions: healthy volunteers
Experimental: (§2) Safety evaluation was based on clinical observations, vital sign measurements, laboratory tests, physical examination, electrocardiogram, cochlear function, vestibular function testing, and reported adverse events. Cochlear function was evaluated by pure tone audiometry with bone conduction and otoacoustic emission (OAE) testing. Vestibular function was evaluated by electronystagmography (ENG) and Dynamic Visual Acuity (DVA) test. Laboratory tests included complete blood count (CBC), serum chemistries, and urinalysis. BUN and creatinine (Cr) were assessed daily on dosing days to allow the Investigator to monitor renal function. Results were used as criteria for dose escalation. The glomerular filtration rate (GFR) was estimated using iothalamate plasma measurements before dosing and after the multiple dose periods. GFR was also assessed by Cr clearance before dosing and after the multiple dose periods.
Complete physical examinations and ECGs were completed at screen and 2 days after the last multiple-dose. Abbreviated physical examinations were completed prior to the single-dose and prior to the first multiple-dose (those receiving IMP for 10 days have an additional examination prior to the 6th multiple-dose infusion). Vital signs were assessed at screen and all visits during treatment period. Additional safety assessments, including pure tone audiometry and ENG caloric, testing was performed or will be performed at 3 and 6 months after the last dose. Concomitant therapies and adverse events are assessed throughout the screen and treatment period.

[3] = Phase 1 study 15 mg/kg/day once daily for five days: pharmacokinetics; assay type: in vivo; conditions: human
Experimental: as §1

[4] = Plasma protein binding by equilibrium dialysis; assay type: in vitro ADME
Experimental: Bioanalytical data analyses were carried out using Analyst software (version 1.4.1, Applied Biosystems, Toronto, ON, Canada). […] PK parameters were determined by noncompartmental analysis using WinNonLin. Plasma protein binding was determined using equilibrium dialysis. In vitro stability was determined using commercially available plasma, microsomes and hepatocytes.

[5] = system: glomerular filtration rate; experiment: First-in-human phase 1 study: renal function (BUN, Cr, iothalamate GFR); assay type: in vivo; conditions: healthy volunteers
Experimental: as §2
Iothalamate was infused the day prior to the single-dose and prior to the first multiple-dose and the day after the last multiple-dose. Blood samples for iothalamate analysis for GFR calculation were obtained prior to the start of the iothalamate infusion and the following hours after the start of the infusion: 1, 2, 4, and 8.

[6] = GLP 14-day repeat-dose safety study in dog; assay type: in vivo
Source text: The guidance states that the MRSD must be derived from the no observable adverse effect level (NOAEL) obtained in Good Laboratory Practice (GLP) nonclinical animal safety studies. […] Estimation of the human equivalent dose (HED) at the NOAEL is based on both a surface area conversion factor (SACF) and the data from these studies.

Enterobacteriaceae (EN) = experiment: MIC, broth microdilution, Brooklyn hospital isolates: Enterobacteriaceae subsets (amikacin-resistant, KPC+); assay type: cell-based
Experimental: In another study, the activity of Compound 1 against a collection of contemporary Gram-negative bacteria was determined. Unique patient isolates of P. aeruginosa (PA), A. baumannii (AB), K. pneumoniae (KP), E. coli (EC), and Enterobacter spp. (EB) from prior surveys at 16 Brooklyn, N.Y. hospitals were selected based on resistance patterns. The majority of isolates were fingerprinted by automated ribotyping. MICs were performed by broth microdilution. PCR was used to identify aminoglycoside-modifying enzymes (AMEs) in AB and KP and the KPC gene in Enterobacteriaceae (EN). The expression of the efflux genes mexA, C, E and X in PA, and adeB in AB was assessed by real-time RT-PCR.

[7] = First-in-human phase 1 study: urine levels of Compound 1; assay type: in vivo; conditions: Cohort 4 (15 mg/kg)
Experimental: Pooled urine samples for PK analysis were obtained with the single dose and first and last multiple-dose.
The levels of Compound 1 present in the urine of Cohort 4 patients during the 24 hours following administration of the third multi-dose was also examined. […] Perhaps of even greater significance, the concentration of Compound 1 achieved in the urine was at least 1 mg/ml immediately following administration, and remained over 0.1 mg/ml for 12 hours.

[8] = 15 mg/kg/day IV once daily for five days, one line per Subject ID, 15 mg/kg/day
[9] = after 5 days of once-daily IV 15 mg/kg
[10] = plasma, after 5 days of once-daily IV 15 mg/kg

CN[C@@H]1[C@@H](O)[C@@H](O[C@@H]2[C@@H](O)[C@H](O[C@H]3OC(CNCCO)=CC[C@H]3N)[C@@H](N)C[C@H]2NC(=O)[C@@H](O)CCN)OC[C@]1(C)O [Compound 1, 6′-(2-Hydroxy-ethyl)-1-(4-amino-2(S)-hydroxy-butyryl)-sisomicin]
severity of adverse events ([1]; 15 mg/kg/day IV 10 minute infusion, five days): mild to moderate | Serum Creatine, Pre-dose ([1]; 15 mg/kg/day IV once daily for five days, fifth pre-dose column, one line per Subject ID, 15 mg/kg/day): 0.7 mg/dL (2×) and 0.8 mg/dL and 1.2 mg/dL (2×) and 1.1 mg/dL and 1.0 mg/dL | BUN, Post-dose 5 [1, 8]: 13 mg/dL (3×) and 14 mg/dL and 9 mg/dL and 20 mg/dL and 15 mg/dL | BUN, Pre-dose 1 [1, 8]: 9 mg/dL (2×) and 10 mg/dL and 13 mg/dL and 5 mg/dL and 15 mg/dL and 19 mg/dL and 14 mg/dL | BUN, Pre-dose 2 [1, 8]: 18 mg/dL and 16 mg/dL and 19 mg/dL and 17 mg/dL (2×) and 8 mg/dL and 20 mg/dL and 22 mg/dL | BUN, Pre-dose 3 [1, 8]: 13 mg/dL and 18 mg/dL (2×) and 19 mg/dL and 17 mg/dL and 9 mg/dL and 15 mg/dL and 14 mg/dL | BUN, Pre-dose 4 [1, 8]: 13 mg/dL and 14 mg/dL (2×) and 12 mg/dL and 8 mg/dL and 17 mg/dL and 19 mg/dL and 16 mg/dL | BUN, Pre-dose 5 [1, 8]: 16 mg/dL (3×) and 13 mg/dL and 14 mg/dL and 11 mg/dL and 15 mg/dL | Serum Creatine, Post-dose 5 [1, 8]: 0.6 mg/dL (2×) and 1.0 mg/dL and 0.7 mg/dL and 1.1 mg/dL and 0.9 mg/dL (2×) | Serum Creatine, Pre-dose 1 [1, 8]: 0.7 mg/dL (2×) and 0.6 mg/dL (2×) and 0.9 mg/dL (2×) and 1.2 mg/dL and 1.0 mg/dL | Serum Creatine, Pre-dose 2 [1, 8]: 0.7 mg/dL and 0.6 mg/dL (2×) and 0.9 mg/dL (2×) and 1.1 mg/dL (2×) and 1.3 mg/dL | Serum Creatine, Pre-dose 3 [1, 8]: 0.6 mg/dL (3×) and 0.7 mg/dL and 1.0 mg/dL and 1.1 mg/dL and 0.9 mg/dL and 0.8 mg/dL | Serum Creatine, Pre-dose 4 [1, 8]: 0.6 mg/dL (4×) and 1.0 mg/dL and 1.2 mg/dL and 0.9 mg/dL (2×) | changes in BUN or Cr at day 5 post-dosing ([1]; 15 mg/kg/day IV, five days): no substantial changes in either BUN or Cr | tolerability ([1]; 15 mg/kg/day IV, five days): well-tolerated | ototoxicity or nephrotoxicity ([1]; 15 mg/kg/day IV, five days, through the treatment period): No evidence of ototoxicity or nephrotoxicity | animals with elevation of ABR thresholds (mild, 4 and 10 kHz, conductive) (hearing function; guinea pigs, 8 mg/kg dose group): one male and one female | ABR pre- to post-dosing hearing threshold shift (hearing function; guinea pigs, 8, 30, 80 mg/kg for 14 days, 4, 10, 20 kHz): no significant pre- to post-dosing hearing threshold shift at any frequency; also recorded: did not have an adverse effect | functional hearing loss (ABR) (hearing function; guinea pigs, 14 days, up to 80 mg/kg/day): no functional hearing loss; also recorded: None of the animals treated with Compound 1 at any dose showed any functional hearing loss | mortality and general observations (hearing function; guinea pigs, SC 8, 30, 80 mg/kg for 14 days): did not produce mortality and was without effect on clinical observations, body weights, physical examinations, ABR evaluations, macroscopic findings, middle ear assessments, or ossicle mobility | cochlear function (pure tone audiometry, bone conduction, OAE) [2]: did not reveal any treatment related effects | ototoxicity signal [2]: No ototoxocity signal | vestibular function (ENG and DVA) [2]: did not reveal any treatment related effects | area under the plasma concentration-time curve [3, 9]: 239 µg·h/mL | fluctuation index [3, 9]: > 1000% | trough (Cmin) [3, 9]: 0.4 µg/mL | drug accumulation ([3]; once-daily dosing for up to 5 days): lack of appreciable drug accumulation | AUC ([3]; plasma, intravenous, 15 mg/kg, read-out: average AUC in humans): ~240 µg·h/mL | clearance [3, 10]: 1.1 mL/min/kg | half-life [3, 10]: ~3 h | Cmax ([3]; plasma, after 5 days of once-daily IV 15 mg/kg, read-out: peak (Cmax)): 113 µg/mL | Vd ([3]; plasma, after 5 days of once-daily IV 15 mg/kg, read-out: steady state volume of distribution): 0.24 L/kg | fraction unbound [4]: > 0.8 | iothalamate plasma measurements (GFR) [5]: did not change | NOAEL at 14 days ([6]; dog, in vivo): 3 mg/kg | HED ([6]; from dog NOAEL, SACF 1.8): 1.7 mg/kg | new toxicities ([6]; nonclinical GLP safety studies in dogs): no new toxicities apart from those already known to the class | cardiac or respiratory safety signals ([6]; nonclinical GLP studies in dogs): no cardiac or respiratory safety signals | MIC50 (Enterobacteriaceae (EN)): 0.5 µg/mL (≈ 0.844 µM) | MIC90 (Enterobacteriaceae (EN); Amikacin-Resistant-EN (n = 35)): 2 µg/mL (≈ 3.37 µM) | MIC50 (Enterobacteriaceae (EN); KPC +− EN (n = 24)): 0.5 µg/mL (≈ 0.844 µM) | MIC90 (Enterobacteriaceae (EN); KPC +− EN (n = 24)): 4 µg/mL (≈ 6.75 µM) | urine concentration immediately following administration [7]: at least 1 mg/ml | urine concentration maintained for 12 hours [7]: over 0.1 mg/ml | administered Compound 1 excreted within 24 hours (upper estimate) ([7]; after third multi-dose): about 90% | average fraction excreted in urine in an unchanged form over 24 hours ([7]; after third multi-dose): 75%
